Experimental data reported in US9029386B2, “Pyridine derivatives useful as kinase inhibitors” (YM Biosciences Australia Pty Ltd, priority 2006, dated 2015).

Experiments:
FLT-3 tyrosine kinase = biological target: T1, FLT-3 tyrosine kinase (Homo sapiens, UniProt P36888); test: Alphascreen protein tyrosine kinase assay, FLT-3; type: biochemical; details: read-out: Flt3
T1 construct: purchased Upstate Cell Signalling Solutions, CA, USA 14-500
T1 sequence (P36888 27-993): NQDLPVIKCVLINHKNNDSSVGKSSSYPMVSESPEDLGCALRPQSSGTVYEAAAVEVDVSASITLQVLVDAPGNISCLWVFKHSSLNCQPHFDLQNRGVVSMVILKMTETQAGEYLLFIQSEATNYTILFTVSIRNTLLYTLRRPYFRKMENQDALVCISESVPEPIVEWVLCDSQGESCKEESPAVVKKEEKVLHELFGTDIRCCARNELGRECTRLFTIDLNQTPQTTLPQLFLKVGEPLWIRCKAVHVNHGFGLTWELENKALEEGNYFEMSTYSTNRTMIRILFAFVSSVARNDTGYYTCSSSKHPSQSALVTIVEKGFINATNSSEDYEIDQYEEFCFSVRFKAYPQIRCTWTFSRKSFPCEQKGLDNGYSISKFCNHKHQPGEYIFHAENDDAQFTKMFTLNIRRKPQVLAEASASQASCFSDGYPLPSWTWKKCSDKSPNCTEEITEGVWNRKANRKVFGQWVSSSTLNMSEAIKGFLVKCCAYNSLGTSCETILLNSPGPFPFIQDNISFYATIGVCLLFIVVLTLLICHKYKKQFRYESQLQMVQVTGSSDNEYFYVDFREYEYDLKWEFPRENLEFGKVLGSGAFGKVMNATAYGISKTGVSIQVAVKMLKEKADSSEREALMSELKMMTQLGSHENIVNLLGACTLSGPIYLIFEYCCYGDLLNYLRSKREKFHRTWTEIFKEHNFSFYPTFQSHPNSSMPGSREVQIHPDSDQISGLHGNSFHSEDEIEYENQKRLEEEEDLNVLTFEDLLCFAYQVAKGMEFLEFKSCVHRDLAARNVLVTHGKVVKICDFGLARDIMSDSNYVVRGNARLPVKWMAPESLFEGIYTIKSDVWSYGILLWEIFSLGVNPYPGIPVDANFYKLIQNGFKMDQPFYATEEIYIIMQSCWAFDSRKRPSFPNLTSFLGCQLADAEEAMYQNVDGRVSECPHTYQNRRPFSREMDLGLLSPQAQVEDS

PDGFR β tyrosine kinase = biological target: T2, PDGFR β tyrosine kinase (Homo sapiens, UniProt P09619); test: Alphascreen protein tyrosine kinase assay, PDGFRβ; type: biochemical
T2 construct: purchased Upstate Cell Signalling Solutions, CA, USA 14-463

[1] = biological target: T3, kinase domain of human c-kit (Homo sapiens, UniProt P10721); test: Alphascreen protein tyrosine kinase assay, c-KIT; type: biochemical
T3 construct: from codon M552 to end; made in house; host or cells: Sf9 insect cells (baculovirus)
Protocol: (§1) For screening purposes, compounds were diluted in 96 well plates at a concentration of 20 μM. Plates were warmed at 37° C. for 30 minutes before assay.
The kinase domain of human c-kit from codon M552 to end was cloned into the pDEST-20 expression vector (Invitrogen). The c-kit plasmid was then transformed into competent DH10Bac cells (Gibco), and the recombinant baculovirus produced prepared for transfection into Sf9 insect cells.
(§2) Baculovirus preparations from each of construct were infected into five liters of SF9 cells (Invitrogen) grown in SF-900 medium (Invitrogen) to a cell density of approximately 1−2×10^6 cells/ml. […] Cells were harvested and lysed. Tyrosine kinase domains were purified by affinity chromatography on a glutathione-agarose column (Scientifix Pty. Ltd. catalog #: GSH-200).
(§3) Kinase assays were performed in 384 well Optiplates (Packard) using an Alphascreen Protein Tyrosine Kinase kit. […] Alphascreen phosphotyrosine acceptor beads followed by streptavidin donor beads were added under subdued light. The Alphascreen plates were read on a Packard Fusion Alpha. Inhibitors were added to the assays thirty minutes prior to the addition of ATP. Inhibitors were added in aqueous DMSO, with DMSO concentrations never exceeding 1%.

[2] = biological target: T4, kinase domain of human CSF1-R (Homo sapiens, UniProt P07333); test: Alphascreen protein tyrosine kinase assay, CSF-1R; type: biochemical
T4 construct: from codon I553 to Q961; made in house; host or cells: Sf9 insect cells (baculovirus)
T4 sequence (P07333 553-961): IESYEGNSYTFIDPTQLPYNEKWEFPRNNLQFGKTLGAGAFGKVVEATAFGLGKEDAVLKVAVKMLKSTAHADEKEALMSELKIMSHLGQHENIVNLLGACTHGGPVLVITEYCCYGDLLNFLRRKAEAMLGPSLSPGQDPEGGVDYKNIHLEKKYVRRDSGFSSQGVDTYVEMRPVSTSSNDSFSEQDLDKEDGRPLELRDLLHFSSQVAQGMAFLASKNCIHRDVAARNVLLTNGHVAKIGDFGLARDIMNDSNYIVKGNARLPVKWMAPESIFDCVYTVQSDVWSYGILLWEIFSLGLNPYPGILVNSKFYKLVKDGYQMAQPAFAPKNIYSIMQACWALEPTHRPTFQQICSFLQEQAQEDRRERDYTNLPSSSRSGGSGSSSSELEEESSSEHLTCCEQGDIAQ
Protocol: as §1
The kinase domain of human CSF1-R from codon I553 to Q961 was cloned into the pDEST-20 expression vector (Invitrogen). The CSF1-R plasmid was then transformed into competent DH10Bac cells (Gibco), and the recombinant baculovirus produced prepared for transfection into Sf9 insect cells.
as §2, §3

KDR protein kinase = biological target: T5, KDR protein kinase (Homo sapiens, UniProt P35968); test: Alphascreen protein tyrosine kinase assay, KDR; type: biochemical
T5 construct: purchased Millipore 14-630M
Protocol: as §1
FLT-3 and PDGFR β tyrosine kinase enzymes were purchased from Upstate Cell Signalling Solutions, CA, USA (flt-3 catalog #: 14-500 and PDGFR β catalog #: 14-463). KDR protein kinase enzyme was purchased from Millipore (catalogue #14-630M).
Kinase assays were performed in 384 well Optiplates (Packard) using an Alphascreen Protein Tyrosine Kinase kit. […] The biotinylated peptides Biotin-[…]-NH2 for c-KIT and PDGFRβ and Biotin-[…]-NH2 for CSF1-R and FLT-3 (final concentration 0.1-3 μM) were used as substrates. Alphascreen phosphotyrosine acceptor beads followed by streptavidin donor beads were added under subdued light. The Alphascreen plates were read on a Packard Fusion Alpha. Inhibitors were added to the assays thirty minutes prior to the addition of ATP. Inhibitors were added in aqueous DMSO, with DMSO concentrations never exceeding 1%.

mNFS-60 = test: Cellular assay (Alamar Blue), mNFS-60 with human M-CSF; type: cell-based; details: human M-CSF at 20 ng/ml, 72 hr
Protocol: (§4) Cells for the assays were prepared by harvesting cells from culture, and then diluting them in the appropriate growth medium to between 40,000 cell/mL and 600,000 cell/mL, depending on the cell line.
(§5) The compounds to be tested were added (104, 10× final concentration) to a flat bottomed 96-well plate. The cellular suspension (80 μL per well) was added, and one hour later the growth factor was added (human M-CSF at 20 ng/ml for mNFS-60, mouse IL-3 at 5 ng/ml for Baf3-WT). The plate was then incubated for 72 hr at 37° C., 5% CO2. Alamar Blue (10^4 per well) was added and the plates returned to the incubator for a further 4-8 hours.
(§6) The plates were then read using a fluorescence plate reader at excitation 544 nm and emission 590 nm.

Baf3-WT = test: Cellular assay (Alamar Blue), Baf3-WT with mouse IL-3; type: cell-based; details: mouse IL-3 at 5 ng/ml, 72 hr
Protocol: as §4, §5, §6

T3 sequence (P10721 552-976 limits assumed): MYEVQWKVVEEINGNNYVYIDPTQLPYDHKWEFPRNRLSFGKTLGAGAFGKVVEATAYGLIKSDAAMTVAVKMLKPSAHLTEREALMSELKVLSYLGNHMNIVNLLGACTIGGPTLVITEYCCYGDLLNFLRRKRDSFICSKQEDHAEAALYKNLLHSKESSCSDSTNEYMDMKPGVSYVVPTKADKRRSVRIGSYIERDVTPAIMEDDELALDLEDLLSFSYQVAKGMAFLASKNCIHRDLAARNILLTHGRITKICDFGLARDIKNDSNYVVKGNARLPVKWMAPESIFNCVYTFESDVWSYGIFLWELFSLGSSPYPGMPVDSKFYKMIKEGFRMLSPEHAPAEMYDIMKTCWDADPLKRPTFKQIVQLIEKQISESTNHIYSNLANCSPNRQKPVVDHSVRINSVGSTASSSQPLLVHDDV
T2 sequence (P09619 33-1106): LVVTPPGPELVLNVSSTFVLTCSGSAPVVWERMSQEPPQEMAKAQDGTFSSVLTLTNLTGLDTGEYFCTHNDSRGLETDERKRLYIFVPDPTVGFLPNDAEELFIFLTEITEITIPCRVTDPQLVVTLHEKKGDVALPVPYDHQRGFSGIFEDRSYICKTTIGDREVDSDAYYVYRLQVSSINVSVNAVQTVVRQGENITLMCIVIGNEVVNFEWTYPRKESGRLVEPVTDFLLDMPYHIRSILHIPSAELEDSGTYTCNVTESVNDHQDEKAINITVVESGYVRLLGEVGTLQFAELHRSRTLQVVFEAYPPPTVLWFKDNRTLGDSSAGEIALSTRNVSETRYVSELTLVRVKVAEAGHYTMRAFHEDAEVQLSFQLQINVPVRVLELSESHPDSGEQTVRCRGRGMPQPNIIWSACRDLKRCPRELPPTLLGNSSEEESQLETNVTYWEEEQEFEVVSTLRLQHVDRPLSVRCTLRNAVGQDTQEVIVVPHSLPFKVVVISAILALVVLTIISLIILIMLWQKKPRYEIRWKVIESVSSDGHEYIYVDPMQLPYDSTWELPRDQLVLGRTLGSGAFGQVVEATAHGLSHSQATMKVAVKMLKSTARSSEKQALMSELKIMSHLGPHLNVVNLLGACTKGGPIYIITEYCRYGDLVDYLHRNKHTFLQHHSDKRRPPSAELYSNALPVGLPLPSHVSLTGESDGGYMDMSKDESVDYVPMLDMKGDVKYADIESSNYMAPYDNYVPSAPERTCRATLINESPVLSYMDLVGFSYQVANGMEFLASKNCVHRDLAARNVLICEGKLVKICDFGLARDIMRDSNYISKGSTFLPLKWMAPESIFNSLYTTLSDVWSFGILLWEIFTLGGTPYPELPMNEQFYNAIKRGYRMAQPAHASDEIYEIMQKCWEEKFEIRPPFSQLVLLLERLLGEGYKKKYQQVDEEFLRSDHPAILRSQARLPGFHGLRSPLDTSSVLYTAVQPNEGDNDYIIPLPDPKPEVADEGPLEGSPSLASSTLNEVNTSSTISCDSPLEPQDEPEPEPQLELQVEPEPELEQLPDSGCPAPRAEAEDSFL
T5 sequence (P35968 20-1356): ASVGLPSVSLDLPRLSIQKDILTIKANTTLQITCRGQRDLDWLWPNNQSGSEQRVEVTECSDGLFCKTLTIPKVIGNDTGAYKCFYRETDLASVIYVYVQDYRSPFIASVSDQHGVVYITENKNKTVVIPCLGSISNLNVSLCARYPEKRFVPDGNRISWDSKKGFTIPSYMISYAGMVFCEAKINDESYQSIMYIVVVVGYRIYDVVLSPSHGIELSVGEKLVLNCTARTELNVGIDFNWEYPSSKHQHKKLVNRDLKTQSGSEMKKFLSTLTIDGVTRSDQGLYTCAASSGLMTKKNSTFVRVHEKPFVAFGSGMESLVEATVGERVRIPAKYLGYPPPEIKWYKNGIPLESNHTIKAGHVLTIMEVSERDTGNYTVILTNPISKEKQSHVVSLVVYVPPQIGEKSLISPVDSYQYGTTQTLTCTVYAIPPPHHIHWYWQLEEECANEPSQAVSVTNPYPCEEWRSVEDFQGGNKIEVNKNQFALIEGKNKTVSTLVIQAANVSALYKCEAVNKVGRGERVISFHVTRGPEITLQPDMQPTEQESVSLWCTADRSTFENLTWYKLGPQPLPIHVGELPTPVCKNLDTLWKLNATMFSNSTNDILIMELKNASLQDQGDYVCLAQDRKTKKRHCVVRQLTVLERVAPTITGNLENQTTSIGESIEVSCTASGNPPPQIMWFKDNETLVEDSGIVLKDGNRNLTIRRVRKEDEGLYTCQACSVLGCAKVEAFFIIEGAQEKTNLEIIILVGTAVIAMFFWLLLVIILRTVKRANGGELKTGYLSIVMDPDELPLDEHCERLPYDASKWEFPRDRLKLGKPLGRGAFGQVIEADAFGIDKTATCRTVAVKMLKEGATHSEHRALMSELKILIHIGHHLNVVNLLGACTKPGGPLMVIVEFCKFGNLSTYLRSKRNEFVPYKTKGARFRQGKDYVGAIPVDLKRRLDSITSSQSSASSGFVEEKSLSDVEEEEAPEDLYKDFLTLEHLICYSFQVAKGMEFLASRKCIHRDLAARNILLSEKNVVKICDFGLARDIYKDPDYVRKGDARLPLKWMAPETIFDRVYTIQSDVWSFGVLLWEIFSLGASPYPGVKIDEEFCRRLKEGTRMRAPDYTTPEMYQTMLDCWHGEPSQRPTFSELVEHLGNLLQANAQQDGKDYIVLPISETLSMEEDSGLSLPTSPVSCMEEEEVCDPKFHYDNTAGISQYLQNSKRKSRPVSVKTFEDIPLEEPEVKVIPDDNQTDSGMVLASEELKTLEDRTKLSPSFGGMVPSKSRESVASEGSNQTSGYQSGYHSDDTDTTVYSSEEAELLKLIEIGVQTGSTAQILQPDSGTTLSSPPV

| SMILES | IC50 (FLT-3 tyrosine kinase) | IC50 (PDGFR β tyrosine kinase) | IC50 [1] | IC50 [2] | IC50 (KDR protein kinase) | IC50 (mNFS-60) | IC50 (Baf3-WT) |
| --- | --- | --- | --- | --- | --- | --- | --- |
| COc1cc(-c2cncc(NC(C)c3cccc(NC(=O)c4cccnc4)c3)n2)ccc1O (stereo not drawn) [Compound 1] | > 10000 nM | < 1000 nM | < 100 nM | – | – | – | – |
| COc1cc(-c2cncc(N[C@@H](C)c3cccc(NC(=O)c4cccnc4)c3)n2)ccc1N [Compound 7] | < 10000 nM | < 100 nM | < 100 nM | < 100 nM | – | – | – |
| COc1cccc(-c2cncc(N[C@@H](C)c3cccc(NC(=O)c4cncc(C)c4)c3)n2)c1 [Compound 24] | < 10000 nM | < 100 nM | < 100 nM | < 100 nM | < 100 nM | < 200 nM | > 10000 nM |
| COc1cc(-c2cncc(N[C@@H](C)c3cccc(NC(=O)c4cncc(C)c4)c3)n2)ccc1O [Compound 28] | < 10000 nM | < 100 nM | < 100 nM | < 100 nM | – | – | – |
| COc1cc(-c2cncc(N[C@@H](C)c3cccc(NC(=O)c4cncc(C)c4)c3)n2)ccc1N [Compound 29] | < 10000 nM | < 100 nM | < 100 nM | < 100 nM | – | – | – |
| COc1cc(-c2cncc(N[C@@H](C)c3cccc(NC(=O)c4ccc(C)nc4)c3)n2)ccc1N [Compound 38] | < 10000 nM | – | < 100 nM | < 100 nM | – | – | – |
| Cc1cncc(C(=O)Nc2cccc([C@H](C)Nc3cncc(Cl)n3)c2)c1 [Compound 42, N-(3-{(1S)-1-[(6-chloropyrazin-2-yl)amino]ethyl}phenyl)-5-methylnicotinamide] | > 10000 nM | < 1000 nM | < 100 nM | – | – | – | – |
| COc1cc(-c2cncc(N[C@@H](C)c3cccc(NC(=O)c4cccc(C)c4)c3)n2)ccc1O [Compound 76] | < 10000 nM | < 1000 nM | < 100 nM | < 100 nM | – | – | – |
| Cc1cncc(C(=O)Nc2cccc([C@H](C)Nc3cncc(-c4ccc(N5CCOCC5)nc4)n3)c2)c1 [Compound 79] | > 10000 nM | < 1000 nM | < 100 nM | < 100 nM | – | – | – |
| Cc1cncc(C(=O)Nc2cccc([C@H](C)Nc3cncc(-c4ccc(NCCN5CCOCC5)nc4)n3)c2)c1 [Compound 80] | > 10000 nM | < 1000 nM | < 100 nM | < 100 nM | – | – | – |
| Cc1cccc(C(=O)Nc2cccc([C@H](C)Nc3cncc(-c4ccc(N5CCOCC5)cc4)n3)c2)c1 [Compound 81] | > 10000 nM | < 1000 nM | < 100 nM | < 100 nM | – | – | – |
| Cc1ccnc(C(=O)Nc2cccc([C@H](C)Nc3cncc(Cl)n3)c2)c1 [Compound 82] | > 10000 nM | < 1000 nM | < 1000 nM | < 100 nM | – | – | – |
| Cc1cc(C(=O)Nc2cccc([C@H](C)Nc3cncc(Cl)n3)c2)ccn1 [Compound 83] | < 1000 nM | < 1000 nM | < 1000 nM | – | – | – | – |
| Cc1cccc(C(=O)Nc2cccc([C@H](C)Nc3cncc(-c4ccc(O)nc4)n3)c2)c1 [Compound 90] | < 10000 nM | < 1000 nM | < 1000 nM | < 100 nM | – | – | – |
| C[C@H](Nc1cncc(Cl)n1)c1cccc(NC(=O)c2ccc(CN3CCN(C)CC3)cc2)c1 [Compound 91] | > 10000 nM | < 1000 nM | < 1000 nM | < 100 nM | – | – | – |
| Cc1ccc(C(=O)Nc2cccc([C@H](C)Nc3cncc(Cl)n3)c2)cc1 [Compound 93] | > 10000 nM | < 1000 nM | < 1000 nM | – | – | – | – |
| Cc1cccc(C(=O)Nc2cccc([C@H](C)Nc3cncc(N4CCC(O)CC4)n3)c2)c1 [Compound 95] | > 10000 nM | < 1000 nM | < 1000 nM | < 100 nM | – | – | – |
